Reference: article PMC5522071, “Preclinical development of G1T38: A novel, potent and selective inhibitor of cyclin dependent kinases 4/6 for use as an oral antineoplastic in patients with CDK4/6 sensitive tumors” (Oncotarget, 2017)

Experiments:
CDK2/Cyclin E = CDK2/Cyclin E (Homo sapiens, UniProt P24941); details: read-out: IC50 CDK2/Cyclin E, Mean; 12-point dose response, singlicate, at Km for ATP
Description: The assays were completed using microfluidic kinase detection technology (Caliper Assay Platform). The compounds were tested in 12-point dose response format in singlicate at the Km for ATP. Phosphoacceptor substrate peptide concentration used was 1 μM and Staurosporine was used as the reference compound for all assays.

[1] = system: RB phosphorylation (Ser807/811) in WM2664 cells; assay: Western blot for pRb and total Rb; format: cell-based
Description: Once phosphorylated, RB dissociates from cell cycle-promoting transcription factors, allowing them to drive the G1 to S-phase transition. Therefore, CDK4/6 inhibition of RB phosphorylation will arrest cells in G1. To assess the effect of G1T38 on RB phosphorylation, WM2664 cells were treated with varying doses of G1T38 for 24 hours. After treatment, cells were harvested and phosphorylation of RB at the Ser807/811 sites was evaluated via immunoblotting. Phosphorylation of RB at Ser807/811 sites first requires binding of CDK4/6 [3] in order to progress into S-phase. […] To determine the kinetics of CDK4/6 inhibition on RB phosphorylation, WM2664 cells were treated with 300 nM G1T38 for 1, 4, 8, 16, and 24 hours.
WM2664 cells were either treated for dose response (3, 10, 30, 100, 300 or 1000 nM) for 24 hours or a time course (1, 4, 8, 16 or 24 hours) with 300 nM G1T38. Whole cell extracts were prepared using 1x radioimmunoprecipitation assay buffer (RIPA) (ThermoFisher) containing 1x HALT® protease and phosphatase inhibitors (ThermoFisher). Total protein concentration was determined by using the bicinchoninic acid (BCA) Protein Assay Kit (PIERCE/ ThermoFisher), according to manufacturer's instructions. 20 micrograms of protein were heat denatured for 10 minutes at 70°C and resolved by Novex® NuPAGE® SDS-PAGE gel system (ThermoFisher) at 200 volts, constant current and transferred to 0.45 μm nitrocellulose membrane (Life Technologies) in 1 x Transfer buffer (Life Technologies) plus 20% methanol (Sigma-Aldrich (St. Louis, MO) by electroblotting at 35 volts, constant current. Membranes were blocked in LiCor Membrane Blocking Buffer (Lincoln, NE) and incubated overnight with either rabbit anti-pRb (Ser807/811, CST-9308) antibody (Cell Signaling Technology (Danvers, MA) at a 1:500 dilution or mouse anti-Rb (CST-9309) at a 1:2,000 dilution and mouse α-tubulin (CST-3873) antibody (Cell Signaling Technology) at a 1:1,000 dilution, as a loading control. […] Blots were incubated for one hour, washed and imaged using LiCor ImageStudio software (Version 4.0.21).

[2] = Accumulation potential in plasma, 28-day repeat dose; format: in vivo, beagle dogs; details: Dog, 28-day daily oral treatment
Description: Beagle dogs (5/ sex) were dosed once daily for 28 consecutive days via oral gavage. The dose levels were 1, 2.5 and 5 mg/kg/day and administered at a dose volume of 5 mL/kg. Hematology samples (1ml/ time point) were collected in K3EDTA tubes twice pre-test and then on days 7, 14, 21, and 25 during the dosing period and on days 35, and 42 during the recovery period. Complete blood counts were performed and results reported. All studies were conducted utilizing methods and protocols in accordance with IACUC approval at MPI Research (Mattawan, MI).
28-day daily oral treatment
The accumulation ratio (R) was calculated for each animal

ER+ MCF7 xenograft = assay: MCF-7 breast cancer xenograft model; format: in vivo, mice; details: for tumor growth inhibition (TGI): after 27 days of treatment
Description: Tumors were measured every 3 to 4 days during treatment for up to 20 days post-treatment. […] South Texas Accelerated Research Therapeutics (START; San Antonio, Texas) evaluated the antitumor activity of G1T38 in a START Cell-Based Xenograft (START-CBX) tumor model, MCF-7, representing human breast cancer. Data collected from this efficacy study included animal weights, observations, and tumor dimensions. This information was used to determine agent tolerability based on weight change and gross physiologic changes, and anticancer activity based on tumor growth inhibition or regression. Study endpoint was Day 60. MCF-7 cells were harvested from culture and injected into immune-deficient mice and the study initiated at a mean tumor volume of approximately 150-250 mm^3. […] Tumor growth inhibition (%TGI) was calculated using the following equation: %TGI=(1-(((TVtmtfinal-TVtmtinitial))/((AVERAGE(TVctlfinal))-(AVERAGE(TVctlinital)))))*100.

CDK5/p25 = target: T1, CDK5/p25 (Homo sapiens, UniProt Q00535); format: biochemical; details: 12-point dose response, singlicate, at Km for ATP
T1 construct: purchased Nanosyn, Inc. (contract assay)

FLT3 (ITD, D835V) = FLT3 (ITD, D835V) (Homo sapiens, UniProt P36888, D835V/ITD); assay: KdELECT Kd determination (DiscoveRx); format: binding
Description: G1T38 was profiled at DiscoveRx (Fremont, CA) using their KINOMEscan and scanMAX screening technology. Briefly, G1T38 was tested at 100 and 1000 times the biochemical IC50 as described in Figure 1B. All target kinases that responded to greater than 90% inhibition were tested as individuals for Kd determination as described in Supplementary Table 1.
Supplementary Table 1: G1T38 Kinase Interactions
KdELECT® (DiscoveRx) was used as a follow-up to quantify binding affinity of G1T38-kinase interactions identified in the primary screen. Inhibitor binding constants (Kd values) were calculated from duplicate 11-point dose-response curves for targets that elicited >90% inhibition at 100 nM.

CDK6/Cyclin D3 = target: T2, CDK6/Cyclin D3 (Homo sapiens, UniProt Q00534); format: biochemical; details: 12-point dose response, singlicate, at Km for ATP
T2 construct: purchased Nanosyn, Inc. (contract assay)

in vivo = details: C57BL/6, mouse, po
[3] = system: pRB in MCF7 xenograft tumors; assay: Inhibition of Rb phosphorylation in MCF-7 tumors; format: in vivo, mice; details: single oral dose 100 mg/kg

T2 sequence (Q00534 whole entry): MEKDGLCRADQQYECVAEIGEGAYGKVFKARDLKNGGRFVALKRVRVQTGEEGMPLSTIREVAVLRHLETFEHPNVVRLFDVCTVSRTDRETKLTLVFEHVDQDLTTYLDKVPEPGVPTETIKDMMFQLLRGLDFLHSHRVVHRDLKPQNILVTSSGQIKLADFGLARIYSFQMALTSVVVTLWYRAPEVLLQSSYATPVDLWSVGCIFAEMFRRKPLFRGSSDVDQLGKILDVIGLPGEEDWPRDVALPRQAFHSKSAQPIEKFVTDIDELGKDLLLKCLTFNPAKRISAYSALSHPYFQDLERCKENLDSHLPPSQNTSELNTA
T2 sequence (P30281 whole entry partner): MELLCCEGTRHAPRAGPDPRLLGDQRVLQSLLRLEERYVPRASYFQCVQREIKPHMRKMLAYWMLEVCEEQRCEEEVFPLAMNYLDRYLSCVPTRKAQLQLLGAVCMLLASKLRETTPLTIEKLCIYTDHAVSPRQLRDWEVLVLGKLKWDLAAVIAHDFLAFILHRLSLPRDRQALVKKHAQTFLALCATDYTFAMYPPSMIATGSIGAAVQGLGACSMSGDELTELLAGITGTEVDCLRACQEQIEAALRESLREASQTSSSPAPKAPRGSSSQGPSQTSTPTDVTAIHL
T1 sequence (Q00535 whole entry): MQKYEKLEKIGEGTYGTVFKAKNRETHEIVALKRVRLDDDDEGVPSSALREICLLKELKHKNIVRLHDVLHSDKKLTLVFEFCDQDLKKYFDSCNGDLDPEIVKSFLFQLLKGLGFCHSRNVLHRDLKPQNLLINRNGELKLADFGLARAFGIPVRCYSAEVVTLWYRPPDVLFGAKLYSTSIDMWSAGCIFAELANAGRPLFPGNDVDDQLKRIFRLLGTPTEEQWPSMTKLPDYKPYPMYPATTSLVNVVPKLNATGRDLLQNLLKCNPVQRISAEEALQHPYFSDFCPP
T1 sequence (Q15078 99-307 partner limits assumed): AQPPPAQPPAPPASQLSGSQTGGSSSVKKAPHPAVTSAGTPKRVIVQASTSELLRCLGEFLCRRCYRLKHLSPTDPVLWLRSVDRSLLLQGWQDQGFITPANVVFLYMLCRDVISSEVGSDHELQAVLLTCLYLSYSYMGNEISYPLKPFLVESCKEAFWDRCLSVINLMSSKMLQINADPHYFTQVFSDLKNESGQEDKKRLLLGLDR

**Q.** Which IC50 (CDK2/Cyclin E) does the source give for `CC(C)N1CCN(c2ccc(Nc3ncc4cc5n(c4n3)C3(CCCCC3)CNC5=O)nc2)CC1.Cl.Cl` [G1T38, 2′-((5-(4-isopropylpiperazin-1-yl)pyridin-2-yl)amino)-7′, 8′dihydro-6′Hspiro[cyclohexane1,9′ pyrazino[1′,2′:1,5]pyrrolo[2,3-d]pyrimidin]-6′-one di-hydrochloride] here?
**A.** The IC50 was 3600 nM.

**Q.** What about the “time to near complete inhibition of RB phosphorylation post-treatment” value ([1]; 300 nM) of the same compound?
**A.** Its value is ≤ 16 h.

**Q.** What about the “time to reduced RB phosphorylation post-treatment” value ([1]; 300 nM) of the same compound?
**A.** Its value is ≤ 1 h.

**Q.** And the “inhibition of RB phosphorylation (figure legend)” value ([1]; 300 nM exposure, 24 hours)?
**A.** Its value is “complete inhibition”.

**Q.** What about the “inhibition of RB phosphorylation compared to vehicle controls” value ([1]; 30-1000 nM, 24 hours) of the same compound?
**A.** The value was “complete inhibition”.

**Q.** And the “Mean Accumulation Ratio (AUC0-24hr Day 28 ÷ Day 1)” value (from here on “Mean Accumulation Ratio”) ([2]; 1 mg/kg)?
**A.** The value was 1.08.

**Q.** What about the “Mean Accumulation Ratio” value ([2]; 2.5 mg/kg) of the same compound?
**A.** The value was 1.3.

**Q.** What about the “Mean Accumulation Ratio” value ([2]; 5 mg/kg) of the same compound?
**A.** Its value is 1.14.

**Q.** And the “tumor growth inhibition (TGI)” value (ER+ MCF7 xenograft; 10 mg/kg once daily oral)?
**A.** Its value is “approximately 12%”.

**Q.** And the “tumor response, combination with fulvestrant” value (ER+ MCF7 xenograft; 50 mg/kg G1T38 + 5 mg fulvestrant, 28 days)?
**A.** Its value is “near complete, sustained tumor regression”.

**Q.** And the “tumor response, combination with tamoxifen” value (ER+ MCF7 xenograft; 50 mg/kg G1T38 + 20 mg/kg tamoxifen, 28 days)?
**A.** The value was “near complete, sustained tumor regression”.

**Q.** And the “efficacy compared with palbociclib” value (ER+ MCF7 xenograft; 50 mg/kg daily oral, 28 days)?
**A.** Its value is “significantly more efficacious than palbociclib”.

**Q.** And the “tumor growth inhibition (TGI)” value (ER+ MCF7 xenograft; 50 mg/kg once daily oral)?
**A.** The value was ~74%.

**Q.** What about the “time to tumor regression” value (ER+ MCF7 xenograft; 100 mg/kg daily oral) of the same compound?
**A.** Its value is ≤ 10 days.

**Q.** And the “tumor growth inhibition (TGI)” value (ER+ MCF7 xenograft; 100 mg/kg once daily oral)?
**A.** The value was ~90%.

**Q.** And the “efficacy, combination with GDC0941” value (ER+ MCF7 xenograft; G1T38 25 or 50 mg/kg + GDC0941 100 mg/kg)?
**A.** Its value is “greater efficacy than any of the treatments alone”.

**Q.** What about the “tumor response, combination with GW5638” value (ER+ MCF7 xenograft; G1T38 25 or 50 mg/kg + GW5638 25 mg/kg) of the same compound?
**A.** The value was “sustained tumor regression”.

**Q.** What about the “TGI as single agents (GDC0941 study)” value (ER+ MCF7 xenograft; G1T38 25 or 50 mg/kg alone, GDC0941 100 mg/kg alone) of the same compound?
**A.** Its value is “modest TGI”.

**Q.** And the “TGI as single agents (GW5638 study)” value (ER+ MCF7 xenograft; G1T38 25 or 50 mg/kg alone, GW5638 25 mg/kg alone)?
**A.** Its value is “modest TGI”.

**Q.** What about the IC50 (CDK5/p25) of the same compound?
**A.** Its IC50 is 1200 nM.

**Q.** What about the Kd (FLT3 (ITD, D835V)) of the same compound?
**A.** Its Kd is 22 nM.

**Q.** And the IC50 (CDK6/Cyclin D3)?
**A.** The IC50 was 2 nM.

**Q.** And the concentration at 24 h (in vivo)?
**A.** Its concentration at 24 h is ~22 nM.

**Q.** What about the “decrease of phosphorylated RB relative to the control” value ([3]; 1 hour post-treatment) of the same compound?
**A.** Its value is 30%.

**Q.** What about the “decrease of phosphorylated RB relative to the control” value ([3]; 24 hours post-treatment) of the same compound?
**A.** The value was 98%.

**Q.** And the “phosphorylation of RB, of control levels” value ([3]; 48 hours post-treatment)?
**A.** Its value is “approximately 31%”.
